Data set [1] is described as follows: logP determination by HPLC on reversed-phase column (C 18), EEC Directive 79/831 Annex V.A8. The data set is classed as physicochemical. Conditions: reversed-phase C 18, 43° C., acid range (0.1% aqueous phosphoric acid, acetonitrile), marked a). The method in brief: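 Reversed-phase C18 HPLC at 43° C, per EEC Directive 79/831 Annex V.A8, acid range: 0.1% aqueous phosphoric acid with linear 10–90% acetonitrile gradient. logP derived from retention time by linear interpolation between calibrating unbranched alkan-2-ones (C3–C16) of known logP.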

In data set [2] the test system is caterpillars of the army worm (Spodoptera frugiperda). Nature of the data set: Spodoptera frugiperda test (cabbage leaves dipped). The format is in vivo. As to conditions: for Kill rate in % after 7 d: 500 ppm, leaf dip, Brassica oleracea. The method, then: (§1) [table] To produce a suitable preparation of active compound, 1 part by weight of active compound is mixed with the stated amount of solvent and the stated amount of emulsifier, and the concentrate is diluted with emulsifier-containing water to the desired concentration. Cabbage leaves (Brassica oleracea) are treated by being dipped into the active compound preparation of the desired concentration and populated with caterpillars of the army worm (Spodoptera frugiperda) while the leaves are still moist. After the desired period of time, the kill in % is determined. 100% means that all caterpillars have been killed; 0% means that none of the caterpillars have been killed.

Data set [3] has as its system larvae of the mustard beetle (Phaedon cochleariae). As to the kind of experiment: Phaedon test (spray treatment). The data set is classed as in vivo. Conditions: for Kill rate in % after 7 d: 500 g/ha, spray, Brassica pekinensis disks. The method, then: (§2) [table] To produce a suitable preparation of active compound, 1 part by weight of active compound is mixed with the stated amounts of solvents and emulsifier, and the concentrate is diluted with emulsifier-containing water to the desired concentration. Disks of Chinese cabbage (Brassica pekinensis) are sprayed with an active compound preparation of the desired concentration and, after drying, populated with larvae of the mustard beetle (Phaedon cochleariae). After the desired period of time, the effect in % is determined. 100% means that all beetle larvae have been killed; 0% means that none of the beetle larvae have been killed.

Data set [4] concerns common spidermite (Tetranychus urticae). As to the kind of experiment: Tetranychus test. As to conditions: for Kill rate in % after 5 d: 500 ppm, spray, Phaseolus vulgaris disks. The format is in vivo. The method, then: To produce a suitable preparation of active compound, 1 part by weight of active compound is mixed with the stated amounts of solvent and emulsifier, and the concentrate is diluted with emulsifier-containing water to the desired concentration.
Disks of beans (Phaseolus vulgaris), which are infested by all stages of the common spidermite (Tetranychus urticae) are sprayed with an active compound preparation of the desired concentration.
After the desired period of time, the effect in % is determined. 100% means that all spidermites have been killed; 0% means that none of the spidermites have been killed.

The test system of data set [5] is green peach aphid (Myzus persicae). As to the kind of experiment: Myzus test - oral. The format is in vivo. As to conditions: for Kill rate in % after 6 d: 100 ppm, oral (sucking). The protocol: [table] To produce a suitable preparation of active compound, 1 part by weight of active compound is mixed with the stated amounts of solvent, and the concentrate is diluted with water to the desired concentration. Vessels are populated with all stages of the green peach aphid (Myzus persicae), which are treated by sucking on the active compound preparation of the desired concentration. After the desired period of time, the effect in % is determined. 100% means that all aphids have been killed; 0% means that none of the aphids have been killed.

Data set [6] deals with caterpillars of the army worm (Spodoptera frugiperda). As to the kind of experiment: Spodoptera frugiperda test (corn leaf disks sprayed). The format is in vivo. As to conditions: for Kill rate in % after 7 d: 500 g/ha, spray, Zea mays leaf disks. The method, then:
as §2, with “corn leaves (Zea mays)” for “Chinese cabbage (Brassica pekinensis)”, “caterpillars” for “larvae”, “army worm (Spodoptera frugiperda).” for “mustard beetle (Phaedon cochleariae).”, “caterpillars” for “beetle larvae”

Data set [7] deals with green peach aphid (Myzus persicae). Nature of the data set: Myzus test (spray treatment, Brassica pekinensis). The data set is classed as in vivo. As to conditions: for Kill rate in % after 5 d: 500 g/ha, spray, Brassica pekinensis disks. The method, then:
as §2, with “pekinensis) which are infested by all stages of the green peach aphid (Myzus persicae)” for “pekinensis)”, “concentration.” for “concentration and, after drying, populated with larvae of the mustard beetle (Phaedon cochleariae).”, “aphids” for “beetle larvae”

The subject of data set [8] is larvae of the mustard beetle (Phaedon cochleariae). Nature of the data set: Phaedon larvae test (cabbage leaves dipped). The data set is classed as in vivo. The protocol:
as §1, with “with” for “with emulsifier-containing”, “with larvae” for “with caterpillars”, “the mustard beetle (Phaedon cochleariae)” for “the army worm (Spodoptera frugiperda)”, “all beetle larvae” for “all caterpillars”, “the beetle larvae” for “the caterpillars”

As for `O=C1C(O)=C(c2cc(Cl)cc(Cl)c2)C(=O)N1c1ccc(Cl)cc1` [Example 11], in data set [1], the logP entry is “logP = 3.27^a)”. Also, in data set [2], the “activity in the Spodoptera frugiperda test (leaf dip)” value (“activity … (leaf dip)” below) is “good activity” and the “Kill rate in % after 7 d” value was 100%.
For `O=C1C(O)=C(c2ccc(OC(F)(F)F)cc2)C(=O)N1c1ccc(C(F)(F)F)cc1` [Example 12], the logP result in data set [1] is listed as “logP = 3.97^a)”. Moreover, in data set [2], the “activity … (leaf dip)” value was “good activity” and the “Kill rate in % after 7 d” value was determined as 100%.
For `O=C1C(O)=C(c2ccc(C(F)(F)F)cc2)C(=O)N1c1ccc(C(F)(F)F)cc1` [Example 13], in data set [1], the logP entry was “logP = 3.51^a)”. For the same compound, in data set [2], the “activity … (leaf dip)” value was “good activity” and the “Kill rate in % after 7 d” value was found to be 100%.
For the compound `O=C1C(O)=C(c2c(Cl)cc(C(F)(F)F)cc2Cl)C(=O)N1C1CCCC(C(F)(F)F)C1` (stereo not shown) [Example 191], the logP entry in data set [1] was “logP = 4.05^a)”. Besides, in data set [3], the “activity in the Phaedon test (spray treatment)” value (“activity in the Phaedon test” below) is on record as “good activity” and the “Kill rate in % after 7 d” value stood at 100%. For the same compound, in data set [4], the “activity in the Tetranychus test” value is listed as “good activity” and the “Kill rate in % after 5 d” value came out at 90%.
As to `O=C1C(O)=C(c2ccc(F)cc2C(F)(F)F)C(=O)N1C1CCCC(C(F)(F)F)C1` (stereo not shown) [Example 192], in data set [1], the logP result was “logP = 3.56^a)”. Besides, in data set [3], the “activity in the Phaedon test” value was “good activity” and the “Kill rate in % after 7 d” value was determined as 100%. In addition, in data set [4], the “activity in the Tetranychus test” value is “good activity” and the “Kill rate in % after 5 d” value is given as 90%. For the same compound, the “activity in the Myzus test - oral” value in data set [5] is recorded as “good activity”.
Regarding `O=C1C(O)=C(c2cc(F)cc(F)c2F)C(=O)N1C1CCCC(C(F)(F)F)C1` (stereo not shown) [Example 193], the logP result in data set [1] is “logP = 3.42^a)”. Besides, in data set [3], the “activity in the Phaedon test” value is recorded as “good activity” and the “Kill rate in % after 7 d” value was 100%. Besides, in data set [4], the “activity in the Tetranychus test” value was “good activity” and the “Kill rate in % after 5 d” value is 90%.
In the case of `CC(C)C1CCCC(N2C(=O)C(O)=C(c3ccccc3Cl)C2=O)C1` (stereo not shown) [Example 195], in data set [3], the “activity in the Phaedon test” value was “good activity” and the “Kill rate in % after 7 d” value amounted to 100%. Besides, in data set [6], the “activity in the Spodoptera frugiperda test (spray)” value (“activity … (spray)” for short) was “good activity” and the “Kill rate in % after 7 d” value was 100%. In data set [5], the “activity in the Myzus test - oral” value is “good activity” and the “Kill rate in % after 6 d” value is on record as 100%.
Take `CC1CCCC(N2C(=O)C(O)=C(c3ccccc3Cl)C2=O)C1` (stereo not shown) [Example 196]: the logP entry in data set [1] is “logP = 3.57^a)”. Further, in data set [3], the “activity in the Phaedon test” value is listed as “good activity” and the “Kill rate in % after 7 d” value amounted to 100%. In data set [6], the “activity … (spray)” value is reported as “good activity” and the “Kill rate in % after 7 d” value stood at 100%. Further, in data set [5], the “activity in the Myzus test - oral” value is “good activity” and the “Kill rate in % after 6 d” value is on record as 100%.
For the compound `CCOCOC1=C(c2ccccc2Cl)C(=O)N(C2CCCC(C(F)(F)F)C2)C1=O` (stereo not shown) [Example 202], in data set [1], the logP entry is on record as “logP = 4.53^a)”. In addition, in data set [3], the “activity in the Phaedon test” value was “good activity” and the “Kill rate in % after 7 d” value is listed as 100%. In data set [6], the “activity … (spray)” value is “good activity” and the “Kill rate in % after 7 d” value is recorded as 100%. Besides, in data set [7], the “activity in the Myzus test (spray, Brassica pekinensis)” value is “good activity” and the “Kill rate in % after 5 d” value is 80%. Further, in data set [4], the “activity in the Tetranychus test” value is “good activity” and the “Kill rate in % after 5 d” value was 80%.
Regarding `O=C1C(O)=C(c2ccccc2Cl)C(=O)N1C1CCCCC1C(F)(F)F` (stereo not shown) [Example 205], the logP entry in data set [1] is on record as “logP = 3.27^a)”. In addition, in data set [3], the “activity in the Phaedon test” value was “good activity” and the “Kill rate in % after 7 d” value worked out at 100%. In addition, the “Kill rate in % after 6 d” value in data set [5] is 100%.
With `CC(C)(C)C(=O)OC1=C(c2ccccc2Cl)C(=O)N(C2CCC(C(F)(F)F)CC2)C1=O` (stereo not shown) [Example 207], the logP result in data set [1] was “logP = 5.31^a)”. In data set [3], the “activity in the Phaedon test” value is “good activity” and the “Kill rate in % after 7 d” value is 100%. In data set [7], the “activity in the Myzus test (spray, Brassica pekinensis)” value was “good activity” and the “Kill rate in % after 5 d” value stood at 100%. Besides, in data set [4], the “Kill rate in % after 5 d” value amounted to 90%.
As to `O=C1C(O)=C(c2cc(Cl)cc(Cl)c2)C(=O)N1C1CCC(C(F)(F)F)CC1` (stereo not shown) [Example 212], the logP entry in data set [1] is reported as “logP = 4.48^a)”. For the same compound, in data set [8], the “activity in the Phaedon larvae test” value is recorded as “good activity”. Also, the “Kill rate in % after 7 d” value in data set [8] (500 ppm, leaf dip, Brassica oleracea) is given as 100%; in data set [3] it was 100%; in data set [2], 100%; in data set [6], 100%. The “activity in the Phaedon test” value in data set [3] is on record as “good activity”. In addition, the “activity … (leaf dip)” value in data set [2] was “good activity”. The “activity … (spray)” value in data set [6] was “good activity”.
As to `O=C1C(O)=C(c2ccccc2C(F)(F)F)C(=O)N1C1CCCC(C(F)(F)F)C1` (stereo not shown) [Example 217], in data set [3], the “activity in the Phaedon test” value is recorded as “good activity” and the “Kill rate in % after 7 d” value was found to be 100%. In data set [6], the “activity … (spray)” value is recorded as “good activity” and the “Kill rate in % after 7 d” value is reported as 100%. Moreover, in data set [7], the “activity in the Myzus test (spray, Brassica pekinensis)” value is recorded as “good activity” and the “Kill rate in % after 5 d” value came out at 100%. Besides, in data set [5], the “activity in the Myzus test - oral” value is on record as “good activity” and the “Kill rate in % after 6 d” value worked out at 100%.
Consider `O=C1C(O)=C(c2ccccc2I)C(=O)N1C1CCCC(C(F)(F)F)C1` (stereo not shown) [Example 219], for which, in data set [3], the “activity in the Phaedon test” value is “good activity” and the “Kill rate in % after 7 d” value is recorded as 100%. In data set [6], the “activity … (spray)” value is recorded as “good activity” and the “Kill rate in % after 7 d” value worked out at 100%. Besides, in data set [7], the “activity in the Myzus test (spray, Brassica pekinensis)” value is “good activity” and the “Kill rate in % after 5 d” value is recorded as 90%. Besides, in data set [5], the “activity in the Myzus test - oral” value is reported as “good activity” and the “Kill rate in % after 6 d” value amounted to 100%.
On to `CC(C)(C)C(=O)OC1=C(c2ccccc2I)C(=O)N(C2CCCC(C(F)(F)F)C2)C1=O` (stereo not shown) [Example 221], for which, in data set [3], the “activity in the Phaedon test” value was “good activity” and the “Kill rate in % after 7 d” value came to 100%. Further, in data set [7], the “activity in the Myzus test (spray, Brassica pekinensis)” value was “good activity” and the “Kill rate in % after 5 d” value was determined as 100%. Also, in data set [4], the “activity in the Tetranychus test” value was “good activity” and the “Kill rate in % after 5 d” value was determined as 80%.

The values above are taken from US20090099192A1, “Substituted 1H-pyrrole-2,5-diones” (Bayer CropScience AG, priority 2004, published 2009).
